Source: patent publication US20220090096A1 (priority 2019, published 2022)

Columns and labels:
[1] = test system: catP reporter (Chloramphenicol Acetyl Transferase, CAT); assay type: cell-based, Clostridium sporogenes NCIMB 10696
C. sporogenes = assay type: cell-based, Clostridium sporogenes; conditions: theophylline 0.1-10 mM supplemented at time zero
Experimental: For growth experiments, pre-cultures grown for 12 hours were diluted to a starting OD600 of 0.01 with fresh medium containing different concentrations of the inducer theophylline (0-10 mM). Because theophylline is dissolved in DMSO, appropriate quantities of DMSO were added to all the cultures to account for any effect DMSO might have on growth.

Clostridium sporogenes = assay type: in vitro ADME; conditions: 2 mM in TYG medium; up to 20 hours
Experimental: To analyse if C. sporogenes consumes theophylline, 12 hour cultures were diluted to a staring OD600 of 0.01. At an OD600 of ≈0.5 cultures were induced with 2 mM theophylline. 1 mL samples were taken immediately and then at 2, 4, 6, 8, 10 and 20 hours after supplementation of theophylline. Samples were centrifuged for 10 min and 10000×g. Supernatants were used to determine the concentration of theophylline using an Alliance HT 2795 HPLC (Waters corporation) coupled to a Micromass Quattro LC Mass Spectrometer (Waters Wilmslow) in positive mode from m/z 70 to 500 for all samples at a scan rate of 1 cycle/s and equipped with an electrospray source. The general parameters were as follows: capillary voltage 2000 V, sampling cone 30 V, source temperature 130° C., desolvation temperature 350° C., cone gas flow 64 L/h and desolvation gas flow 621 L/h.
Prior to ionization, chromatographic separation was achieved using a Supelco Ascentis Express HPLC column (100 mm×3 mm, 2.7 μM, Sigma Aldrich). The mobile phase consisted of (A) water with 0.1% v/v formic acid and (B) methanol with 0.1% v/v formic acid. […]
As requisite of a good inducer, it was ascertained that theophylline is not metabolized by Clostridium sporogenes. […] The concentration of theophylline was monitored by HPLC/MS (high-performance liquid chromatography-mass spectrometry) analysis of cell-free supernatant samples over time.

Cn1c(=O)c2[nH]cnc2n(C)c1=O [theophylline]
dose dependency of gene expression [1]: higher levels of gene expression | concentrations resulting in a reduction of growth (C. sporogenes): higher than 5 mM | concentration of theophylline in cell-free supernatant over time (Clostridium sporogenes): remains constant
